# Entries after “also recorded” stand apart in the source; their conditions may differ.
# How the values were obtained:
# Assay type in all cases: in vivo, rat
# SHR with heart failure [1] = experiment: Serial echocardiographic measurement of LV ejection fraction in SHR; conditions: echocardiography, SHR-F following 30 days of treatment, n=6 per group
# From the text: FIGS. 1A-1B illustrate serial echocardiographic measurements in SHR. LV ejection fraction (FIG. 1A) and end-systolic and end-diastolic LV volume (FIG. 1B) of male SHR during the transition to heart failure (12, 17, and 19 months of age). EF, LV ejection fraction (%); ESV, end-systolic volume (ml); EDV, end-diastolic volume (ml). LV function remains compensated until approximately 17 months, and then rapidly declines; mean age at onset of heart failure 19±1 months. FIGS. 2A-2B represent serial echocardiographic measurements (n=6 animals per group) of LV ejection fraction (LVEF) from individual SHR obtained before the onset of heart failure (Baseline), at the time of heart failure (HF) and following 30 days of treatment (Rx) with either captopril (CAPT—FIG. 2A) or combined captopril and phenylbutyrate treatment (CAPT+PB—FIG. 2B). Note marked reduction in LVEF with HF. […] FIG. 3 illustrates LV ejection fraction (LVEF) in non-failing SHR (SHR-NF), SHR with HF (SHR-F) and SHR-F following 30 days of captopril (CAPT) or combined phenylbutyrate and captopril treatment (CAPT+PB). […] Data are mean±SD (n=6 per group).
# [2] = test system: spontaneously hypertensive rats (SHR) with heart failure; experiment: Body weight, cardiac chamber weights and hypertrophy indices in SHR with heart failure after 30 days of treatment
# From the text: Adult male spontaneously hypertensive rats (SHR) rats were purchased as retired breeders from Taconic Inc and boarded in the animal facility at the Boston VA Healthcare system until the time of study (18 to 24 months of age). Each rat was caged alone and allowed free access to chow and water. Animals were monitored several times per week for evidence of tachypnea and labored respiration; when these clinical findings were clearly in evidence, animals were either killed and studied or treated with captopril and/or phenylbutyrate. Groups of animals were treated by adding the angiotensin converting enzyme inhibitor captopril to the drinking water (2 g/L to drinking water) and/or phenylbutyrate to the drinking water (6 g/L to the drinking water; sodium 4-phenylbutyrate (Triple Crown America, Inc.)) when clinical evidence of impaired cardiac function was detected. Treatment was continued for 30 days, the animals closely monitored and then studied. A control group of age-matched, untreated SHR rats was used for comparison. At autopsy, animals were examined for pleural or pericardial effusions, atrial thrombi, and right and left ventricular hypertrophy. The heart was lightly blotted and weight, and individual cardiac chambers were quickly dissected, and chamber weight recorded. Left ventricular tissue samples were rapidly frozen and stored in liquid nitrogen for later mRNA analysis. Subsequently, total RNA was isolated from all left ventricular samples and subjected to individual Affymetrix (230 2.0) array analysis (performed at the Genomics Laboratory of Boston University School of Medicine, Boston Mass.). Six individual animals were included in each experimental group. Table 1 (below) summarizes body weight, cardiac chamber weight, and ratios with and without treatment. Referring to Table 1, four groups of six SHR/group were examined: non-treated SHR with heart failure (SHR-F), age matched controls without heart failure (SHR-NF), and SHR with heart failure treated with the angiotensin converting enzyme inhibitor captopril (2 g/L in drinking water) (SHR-F+C) or captopril combined with the histone deacetylase inhibitor phenylbutyrate (6 g/L in the drinking water) for 30 days (SHR-F+CP). […] It was observed that SHR rats with heart failure had enlarged hearts and increased cardiac chamber weights relative to non-failing SHR group and the captopril treated SHR groups. In contrast, the rats treated with phenylbutyrate and captopril had far smaller cardiac chamber weights. There were no significant differences in body weight among the experimental groups. Indices of cardiac hypertrophy (i.e. LV/body weight ratio and RV/body weight ratios) were reduced with phenylbutyrate treatment. Cardiac chamber weight to tibia length data confirmed these findings.
# [3] = test system: left ventricular tissue from SHR with heart failure; experiment: Affymetrix (230 2.0) array mRNA analysis of left ventricular tissue from treated SHR with heart failure
# From the text: Adult male spontaneously hypertensive rats (SHR) rats were purchased as retired breeders from Taconic Inc and boarded in the animal facility at the Boston VA Healthcare system until the time of study (18 to 24 months of age). Each rat was caged alone and allowed free access to chow and water. Animals were monitored several times per week for evidence of tachypnea and labored respiration; when these clinical findings were clearly in evidence, animals were either killed and studied or treated with captopril and/or phenylbutyrate. Groups of animals were treated by adding the angiotensin converting enzyme inhibitor captopril to the drinking water (2 g/L to drinking water) and/or phenylbutyrate to the drinking water (6 g/L to the drinking water; sodium 4-phenylbutyrate (Triple Crown America, Inc.)) when clinical evidence of impaired cardiac function was detected. Treatment was continued for 30 days, the animals closely monitored and then studied. A control group of age-matched, untreated SHR rats was used for comparison. At autopsy, animals were examined for pleural or pericardial effusions, atrial thrombi, and right and left ventricular hypertrophy. The heart was lightly blotted and weight, and individual cardiac chambers were quickly dissected, and chamber weight recorded. Left ventricular tissue samples were rapidly frozen and stored in liquid nitrogen for later mRNA analysis. Subsequently, total RNA was isolated from all left ventricular samples and subjected to individual Affymetrix (230 2.0) array analysis (performed at the Genomics Laboratory of Boston University School of Medicine, Boston Mass.). Six individual animals were included in each experimental group. […] FIGS. 7A-7B provide a visual summary of the quantitative changes in transcripts observed with heart failure (SHR-F) compared to non-failing gene expression (SHR-F vs. SHR-NF) and those effects of treatment (SHR-F+C and SHR-F+CP) relative to un-treated SHR with heart failure. […] FIGS. 8A-8B provide a summary of the number of identified transcripts whose expression was reversed following treatment relative to un-treated SHR with failure. In contrast, phenylbutyrate when combined with captopril treatment reversed expression of more than 47% of heart failure-induced changes in gene expression (p<0.01). […] Analysis of pooled mRNA samples of right ventricular tissue indicate relatively few genes were differentially expressed between LV and RV tissue either with failure or treatment (data not shown). LV and RV are similarly affected by heart failure and amenable to therapeutic treatment effects. Taken together, these findings are consistent with the concept that phenylbutyrate acts as a wide scale inhibitor of transcription to reverse aspects of adverse remodeling and dysfunction associated with heart failure. […] We studied isolated papillary muscle function in the spontaneously hypertensive rat (SHR) which develops heart failure (HF) between 18-24 month of age. Four groups of SHR each consisting of six animals were examined: non-treated SHR with HF (SHR-F), age matched controls without HF (SHR-NF), and SHR with HF that were treated with the ACE inhibitor captopril (2 g/L in drinking water) (SHR-F+C) or captopril combined with the histone deacetylase inhibitor phenylbutyrate (6 g/L in drinking water) for 30 days (SHR-F+CP). […] Following treatment, hearts were isolated and contractile function of LV papillary muscles studied. LV weight and histology were assessed. RNA was isolated from 24 LV samples and subjected to individual Affymetrix (230 2.0) array analysis. Table 3 (below) summarizes the physiological, histological and gene expression findings from this study. […] SHR-F; see FIGS. 7A-7B).
# SHR with heart failure [4] = experiment: Quantitative histological examination of myocardial fibrosis; conditions: Table 3, 30 days treatment, mean ± SD
# Experimental: We studied isolated papillary muscle function in the spontaneously hypertensive rat (SHR) which develops heart failure (HF) between 18-24 month of age. Four groups of SHR each consisting of six animals were examined: non-treated SHR with HF (SHR-F), age matched controls without HF (SHR-NF), and SHR with HF that were treated with the ACE inhibitor captopril (2 g/L in drinking water) (SHR-F+C) or captopril combined with the histone deacetylase inhibitor phenylbutyrate (6 g/L in drinking water) for 30 days (SHR-F+CP). […] Following treatment, hearts were isolated and contractile function of LV papillary muscles studied. LV weight and histology were assessed. RNA was isolated from 24 LV samples and subjected to individual Affymetrix (230 2.0) array analysis. Table 3 (below) summarizes the physiological, histological and gene expression findings from this study. […] SHR-F; see FIGS. 7A-7B).
# [5] = test system: left ventricular papillary muscles from SHR with heart failure; experiment: Mechanical function of isolated left ventricular papillary muscles from treated SHR with heart failure
# Experimental: At the time of sacrifice, left ventricular papillary muscles were dissected free and mounted in an isolated muscle bath containing oxygenated physiologic solution for assessment of mechanical function. Muscle mechanics were measured under computer control of force or length of the preparation. Force and length data were sampled at a rate of 1 kHz and stored on disk for later analysis.
# Treatment was continued for 30 days and then the animals studied.
# We studied isolated papillary muscle function in the spontaneously hypertensive rat (SHR) which develops heart failure (HF) between 18-24 month of age. […] Following treatment, hearts were isolated and contractile function of LV papillary muscles studied. LV weight and histology were assessed. RNA was isolated from 24 LV samples and subjected to individual Affymetrix (230 2.0) array analysis.
# [6] = Table 1, SHR with heart failure, 30 days treatment, mean ± SD, n=6
# [7] = Table 3, LV samples, p < 0.01 vs. SHR-F
# [8] = of 1431 genes different between SHR-F and SHR-NF, p<0.01 vs. SHR-F
# [9] = Table 2, LV papillary muscle after 30 days treatment, mean ± SD
# [10] = Table 3, LV papillary muscle after 30 days treatment, mean ± SD
structure (smiles),measurement,setting,value
C[C@H](CS)C(=O)N1CCC[C@H]1C(=O)O [captopril],"LV ejection fraction (LVEF), result in words",SHR with heart failure [1],minimal improvement; also recorded: no significant change
same,"LV/BW ratio, index of LV hypertrophy, result in words","[2]; FIG. 4A, SHR-F following 30 days of treatment",no significant reduction
same,"RV/BW ratio, index of RV hypertrophy, result in words","[2]; FIG. 4B, SHR-F following 30 days of treatment",decreased with treatment
same,LV/body wt. (left ventricular to body weight ratio),[2]; [6],3.3 ± 0.3^+ ratio
same,RV/body wt. (right ventricular to body weight ratio),[2]; [6],0.86 ± 0.20^+ ratio
same,LV/Body Weight (ratio),"[2]; Table 3, SHR with heart failure, 30 days treatment, mean ± SD",3.3 ± 0.4 ratio
same,"Gene Expression (number), down-regulated (↓) vs. SHR-F",[3]; [7],42
same,"Gene Expression (number), up-regulated (↑) vs. SHR-F",[3]; [7],99
same,number of identified genes down-regulated by treatment (overexpressed/induced with heart failure),[3]; identified transcripts,12
same,number of identified genes up-regulated by treatment (repressed with heart failure),[3]; identified transcripts,15
same,number of identified genes whose expression was reversed by treatment,"[3]; identified transcripts, relative to un-treated SHR with failure",27
same,number of genes whose change in expression was significantly reversed,[3]; [8],141
same,percentage of genes whose change in expression was significantly reversed,[3]; [8],9.8%
same,transcripts significantly modified with treatment,"[3]; of heart failure-altered transcripts, p<0.01",< 2%
same,Fibrosis (%),SHR with heart failure [4],22.8 ± 3.1 %
same,"quick release force-velocity (F-V) relationships from LV papillary muscles, result in words",[5]; FIG. 6A,not significantly increased
same,"active tension (AT) of LV papillary muscles, result in words",[5]; FIG. 6B,did not improve
same,"contractile function and passive muscle stiffness, result in words","[5]; SHR with heart failure, 30 days treatment",did not restore contractile function or reduce passive muscle stiffness
same,+dT/dt (rate of tension development),[5]; [9],28.4 ± 8.0 g/mm^2/s
same,AT (active tension),[5]; [9],2.7 ± 0.4 g/mm^2
same,Kwm (whole muscle stiffness),[5]; [9],73.9 ± 4.2
same,V1.0 (shortening velocity),[5]; [9],0.9 ± 0.2 muscle length/s
same,AT (active tension),[5]; [10],2.7 ± 0.4 g/mm^2
same,V0.1 (shortening velocity),[5]; [10],0.9 ± 0.2 muscle lengths/s

# Reference: patent US9226965B2, “Method and composition for treating heart failure” (U.S. DEPARTMENT OF VETERANS AFFAIRS, priority 2007, dated 2016)
